Measured values: PubChem BioAssay (NCI)
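Cultured in 96-well plates, cells were exposed to test compound for 48 hours across five concentrations. TGI: concentration producing complete growth inhibition.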

Key:
Assay in all cases: NCI tumour cell line growth inhibition, 48 h
786-0 renal = test system: 786-0 renal
A498 renal = test system: A498 renal
A549 NSCLC = test system: A549 NSCLC
ACHN renal = test system: ACHN renal
BT-549 breast = test system: BT-549 breast
CAKI-1 renal = test system: CAKI-1 renal
CCRF-CEM leukemia = test system: CCRF-CEM leukemia
COLO 205 colon = test system: COLO 205 colon
DU-145 prostate = test system: DU-145 prostate
EKVX NSCLC = test system: EKVX NSCLC
HCC-2998 colon = test system: HCC-2998 colon
HCT-116 colon = test system: HCT-116 colon
HCT-15 colon = test system: HCT-15 colon
HL-60(TB) leukemia = test system: HL-60(TB) leukemia
HOP-62 NSCLC = test system: HOP-62 NSCLC
HOP-92 NSCLC = test system: HOP-92 NSCLC
HS 578T breast = test system: HS 578T breast
HT29 colon = test system: HT29 colon
IGROV1 ovarian = test system: IGROV1 ovarian
K-562 leukemia = test system: K-562 leukemia
KM12 colon = test system: KM12 colon
LOX IMVI melanoma = test system: LOX IMVI melanoma
M14 melanoma = test system: M14 melanoma
MALME-3M melanoma = test system: MALME-3M melanoma
MCF7 breast = test system: MCF7 breast
MDA-MB-231 breast = test system: MDA-MB-231 breast
MDA-MB-435 = test system: MDA-MB-435
MDA-N = test system: MDA-N
MOLT-4 leukemia = test system: MOLT-4 leukemia
NCI-H226 lung = test system: NCI-H226 lung
NCI-H23 lung = test system: NCI-H23 lung
NCI-H460 lung = test system: NCI-H460 lung
NCI-H522 lung = test system: NCI-H522 lung
NCI/ADR-RES ovarian = test system: NCI/ADR-RES ovarian
OVCAR-3 ovarian = test system: OVCAR-3 ovarian
OVCAR-4 ovarian = test system: OVCAR-4 ovarian
OVCAR-5 ovarian = test system: OVCAR-5 ovarian
OVCAR-8 ovarian = test system: OVCAR-8 ovarian
PC-3 prostate = test system: PC-3 prostate
RPMI-8226 leukemia = test system: RPMI-8226 leukemia
RXF 393 renal = test system: RXF 393 renal
SF-268 CNS = test system: SF-268 CNS
SF-295 CNS = test system: SF-295 CNS
SF-539 CNS = test system: SF-539 CNS
SK-MEL-2 melanoma = test system: SK-MEL-2 melanoma
SK-MEL-28 melanoma = test system: SK-MEL-28 melanoma
SK-MEL-5 melanoma = test system: SK-MEL-5 melanoma
SK-OV-3 ovarian = test system: SK-OV-3 ovarian
SN12C renal = test system: SN12C renal
SNB-19 CNS = test system: SNB-19 CNS
SNB-75 CNS = test system: SNB-75 CNS
SR leukemia = test system: SR leukemia
SW-620 colon = test system: SW-620 colon
T-47D breast = test system: T-47D breast
TK-10 renal = test system: TK-10 renal
U251 CNS = test system: U251 CNS
UACC-257 melanoma = test system: UACC-257 melanoma
UACC-62 melanoma = test system: UACC-62 melanoma
UO-31 renal = test system: UO-31 renal

COc1ccc(NC2C(=O)C3(C)CCC2C3(C)C)cc1 (centres undefined)
TGI (786-0 renal): > 100 µM
TGI (A498 renal): > 100 µM
TGI (A549 NSCLC): > 100 µM
TGI (ACHN renal): > 100 µM
TGI (BT-549 breast): > 100 µM
TGI (CAKI-1 renal): > 100 µM
TGI (CCRF-CEM leukemia): > 100 µM
TGI (COLO 205 colon): > 100 µM
TGI (DU-145 prostate): > 100 µM
TGI (EKVX NSCLC): > 100 µM
TGI (HCC-2998 colon): > 100 µM
TGI (HCT-116 colon): > 100 µM
TGI (HCT-15 colon): > 100 µM
TGI (HL-60(TB) leukemia): > 100 µM
TGI (HOP-62 NSCLC): > 100 µM
TGI (HOP-92 NSCLC): > 100 µM
TGI (HS 578T breast): > 100 µM
TGI (HT29 colon): > 100 µM
TGI (IGROV1 ovarian): > 100 µM
TGI (K-562 leukemia): > 100 µM
TGI (KM12 colon): > 100 µM
TGI (LOX IMVI melanoma): > 100 µM
TGI (M14 melanoma): > 100 µM
TGI (MALME-3M melanoma): > 100 µM
TGI (MCF7 breast): > 100 µM
TGI (MDA-MB-231 breast): > 100 µM
TGI (MDA-MB-435): > 100 µM
TGI (MDA-N): > 100 µM
TGI (MOLT-4 leukemia): > 100 µM
TGI (NCI-H226 lung): > 100 µM
TGI (NCI-H23 lung): > 100 µM
TGI (NCI-H460 lung): > 100 µM
TGI (NCI-H522 lung): > 100 µM
TGI (NCI/ADR-RES ovarian): > 100 µM
TGI (OVCAR-3 ovarian): > 100 µM
TGI (OVCAR-4 ovarian): > 100 µM
TGI (OVCAR-5 ovarian): > 100 µM
TGI (OVCAR-8 ovarian): > 100 µM
TGI (PC-3 prostate): > 100 µM
TGI (RPMI-8226 leukemia): > 100 µM
TGI (RXF 393 renal): > 100 µM
TGI (SF-268 CNS): > 100 µM
TGI (SF-295 CNS): > 100 µM
TGI (SF-539 CNS): > 100 µM
TGI (SK-MEL-2 melanoma): > 100 µM
TGI (SK-MEL-28 melanoma): > 100 µM
TGI (SK-MEL-5 melanoma): 99.8 µM
TGI (SK-OV-3 ovarian): > 100 µM
TGI (SN12C renal): > 100 µM
TGI (SNB-19 CNS): > 100 µM
TGI (SNB-75 CNS): > 100 µM
TGI (SR leukemia): > 100 µM
TGI (SW-620 colon): > 100 µM
TGI (T-47D breast): > 100 µM
TGI (TK-10 renal): > 100 µM
TGI (U251 CNS): > 100 µM
TGI (UACC-257 melanoma): > 100 µM
TGI (UACC-62 melanoma): > 100 µM
TGI (UO-31 renal): > 100 µM
